The values that follow come from ChEMBL document CHEMBL5550093, “Design, synthesis and antitumor activity of 2-substituted quinazoline-4-amine derivatives” (Bioorg Med Chem, 2024).

Activity calls are given as the source filed them. The calls are words filed in the database; no cut-off is given here.

The test system of data set [1] is PC-3. Briefly: Antiproliferative activity against human PC-3 cells at 5 uM incubated for 48 hrs by MTT assay relative to control. In kind it is functional. A general note: Tetrazolium assays rely on reduction of a dye to a coloured formazan, in cell work by metabolically active cells.
In data set [2] the test system is K562. Briefly: Antiproliferative activity against human K562 cells at 5 uM incubated for 48 hrs by MTT assay relative to control. Type of data set: functional.
In data set [3] the test system is A549. Briefly: Antiproliferative activity against human A549 cells at 5 uM incubated for 48 hrs by MTT assay relative to control. In kind it is functional.
In data set [4] the test system is HeLa. The experiment in a line: Antiproliferative activity against human HeLa cells at 5 uM incubated for 48 hrs by MTT assay relative to control. Type of data set: functional.
Data set [5] in a line: Antiproliferative activity against HEK293T cells at 5 uM incubated for 48 hrs by MTT assay relative to control. Type of data set: toxicity, cell-based, HEK-293T. The following applies: human.
The test system of data set [6] is PC-3. The experiment in a line: Antiproliferative activity against human PC-3 cells incubated for 48 hrs by MTT assay. In kind it is functional, cell-based. Particulars: for IC50: PC-3, 48 h; for IC20: PC-3, time 48 hrs.
Data set [7] has as its system K562. Briefly: Antiproliferative activity against human K562 cells incubated for 48 hrs by MTT assay. In kind it is functional, cell-based. Particulars: K562, 48 h.
The subject of data set [8] is HeLa. The experiment in a line: Antiproliferative activity against human HeLa cells incubated for 48 hrs by MTT assay. Type of data set: functional, cell-based.
Data set [9] deals with A549. The experiment in a line: Antiproliferative activity against human A549 cells incubated for 48 hrs by MTT assay. In kind it is functional, cell-based. The following applies: A549, 48 h.
A short description of data set [10]: Antiproliferative activity against HEK293T cells incubated for 48 hrs by MTT assay. The following applies: human. In kind it is toxicity, cell-based, HEK-293T.
For data set [11], the system named is PC-3. Briefly: Antiproliferative activity against human PC-3 overexpressing WRN cells incubated for 48 hrs by MTT assay. In kind it is functional.
Data set [12] has as its system PC-3. The experiment in a line: Inhibition of cell survival in human PC-3 cells at 1000 nM pretreated for 48 hrs followed by fresh media replacement without compound measured after 2 weeks by colony formation assay. In kind it is functional, cell-based.

Broadly, the inhibition is the change of the read-out against control, counted positive when it falls. For orientation: IC50 means the concentration needed to halve the response being measured. Broadly, the IC20 is the point of the concentration-response curve where the effect stands at 20%. Higher therefore signals a need for much substance. In the case of `COc1ccc(N(C)c2nc([C@@H](N)C(C)C)nc3ccccc23)cc1`, the inhibition at 5 µM with PC-3 [1] is 51.9%; with K562 [2] it was 85.2%; with A549 [3], 72.6%; with HeLa [4], 33.6%. Moreover, the inhibition at 48 h, 5 µM in [5] amounted to 59.2%. For the same compound, the concentration for half-maximal inhibition (IC50) in the data set on PC-3 [6] was 8 µM; in the data set on K562 [7] it was 8 µM; in the data set with HeLa [8], more than 10 µM; in the data set with A549 [9] it was more than 10 µM. Also, the IC20 with PC-3 [6] was 7.61 µM; with PC-3 [11] it was 1.11 µM. This compound also showed a half-maximal inhibitory concentration (IC50) at 48 h in [10] of 7.9 µM. Moreover, the inhibition result in the data set with PC-3 [12] was “Active”.
In the case of `COc1cccc(C(F)(F)c2nc(N(C)c3ccc(OC)c(OC)c3)c3ccccc3n2)c1`, the inhibition at 5 µM is 62.7% in the data set on PC-3 [1], 65.5% with K562 [2], 53.2% with A549 [3] and 51.2% with HeLa [4]. In [5], the inhibition at 48 h, 5 µM stood at 63.6%. The IC50 was more than 10 µM in the data set on PC-3 [6], 0.05 µM with K562 [7], more than 10 µM in the data set on HeLa [8] and more than 10 µM in the data set on A549 [9]. Moreover, the IC20 is 0.981 µM with PC-3 [6] and 0.123 µM with PC-3 [11]. Also, the IC50 at 48 h in data set [10] was determined as 1.1 µM. Moreover, in the data set on PC-3 [12], the inhibition entry is “Active”.
`COc1ccc(N(C)c2nc(C(F)(F)c3cccc(OC)c3)nc3ccccc23)cc1`: the inhibition at 5 µM was found to be 57.6% in the data set on PC-3 [1], 61.3% with K562 [2], 52.7% in the data set on A549 [3] and 47.8% in the data set on HeLa [4]. The inhibition at 48 h, 5 µM in [5] came to 56.6%. Besides, the IC50 is 5.6 µM in the data set on PC-3 [6], 0.3 µM in the data set with K562 [7], more than 10 µM in the data set on HeLa [8] and more than 10 µM in the data set with A549 [9]. Further, the results for the IC20 with PC-3 [6] and in the data set on PC-3 [11] were 0.25 µM and 0.144 µM, respectively. The concentration for half-maximal inhibition (IC50) at 48 h in data set [10] was 2.1 µM.
In the case of `CCOC(=O)c1[nH]c(-c2ccc(Nc3nc(C(=O)c4ccccc4)nc4ccc(F)cc34)cc2)nc1C`, the inhibition at 5 µM in the data set with PC-3 [1] was 44.5%; in the data set on K562 [2], 55.4%; in the data set with A549 [3], 40.6%; in the data set with HeLa [4], 34.9%. In data set [5], the inhibition at 48 h, 5 µM came to 58.3%. Also, the IC50 is 5.7 µM in the data set on PC-3 [6], 8 µM with K562 [7], more than 10 µM with HeLa [8] and more than 10 µM with A549 [9]. Besides, the IC20 worked out at 7.51 µM in the data set with PC-3 [6] and 6.6 µM with PC-3 [11]. Moreover, the half-maximal inhibitory concentration (IC50) at 48 h in data set [10] stood at 6.2 µM.
